Values joined by “and” are separate entries in the source; they are usually repeats but may differ in a detail not shown here. Equal entries are not always repeated.
Legend:
[1] = Ultrasound-triggered drug release from P-triblock P-105 micelles, real-time fluorescence detection; assay type: physicochemical; conditions: for Drug release: 10% P-triblock P-105 micelles, 37° C.; for Drug release (mean and s.d.): 10% P-triblock
Excerpt: A custom ultrasonic exposure chamber with real-time fluorescence detection was used to measure acoustically-triggered drug release from P-triblock PLURONIC P-105 micelles under continuous wave (CW) or pulsed ultrasound in the frequency range of 20 kHz to 90 kHz. The measurements were based on the decrease in fluorescence intensity when drug was transferred from the micelle core to the aqueous environment. Two fluorescent drugs were used: doxorubicin (DOX) and its paramagnetic analogue, ruboxyl (Rb). P-triblock PLURONIC P-105 at various concentrations in aqueous solutions was used as a micelle-forming polymer. Drug release was highest at 20 kHz ultrasound and dropped with increasing ultrasonic frequency despite much higher power densities. […] The release of DOX was higher than that of Rb due to stronger interaction and deeper insertion of Rb into the core of the micelles. Drug release was higher at lower P-triblock concentrations, which presumably results from higher local drug concentrations in the core of P-triblock micelles when the number of micelles is low. At constant frequency, drug release increased with increasing power density. At constant power density and for pulse duration longer than 0.1 s, peak release under pulsed ultrasound was the same as stationary release under CW ultrasound.
Fluorescence of the drug was excited at an excitation wavelength of 488 nm with an optical power of approximately 0.5 mW in a 2 mm diameter beam. At this light intensity no photobleaching was observed, based on the constant level of drug fluorescence during continuing irradiation for 8 hours. The drug release was quantified by measuring the changes in fluorescence emissions before, during, and after the ultrasound exposure. A fiberoptic probe (a sheathed bundle of multimode glass fibers, 3 mm entrance diameter, 0.6 numerical aperture, and 90 cm in length) was used to collect the fluorescence emission. The light passed through a dielectric bandpass filter with a 35 nm bandwidth centered at 535 nm (Omega Optical Model 535DF35) to a sensitive silicon detector (EG&G Model 450-1). The filter effectively cuts off emissions below 500 nm, including any Rayleigh-scattered laser light. The detector signal was digitized using a 12-bit AID converter (National Instruments) and sent, along with the digitized monitor photodetector signal, to a Macintosh computer for storage and processing. The analog outputs of both photodetectors were also plotted on a stripchart recorder. The temperature of the ultrasonic exposure chamber was maintained at 37° C. by circulating thermostated water throughout the sonicating bath.
The experimental procedure is described below. First, fluorescence intensity of drug in phosphate buffered saline, PBS (FPBS) was measured; then, without any changes in the experimental setup, the PBS solution was carefully removed and replaced with the drug solution in P-triblock micelles. […] The base fluorescence of the micellar solution (Fmic) was measured, after which CW or pulsed ultrasound was turned on. During the “ultrasound on” phase, fluorescence dropped as shown in FIG. 19 due to drug release from the hydrophobic core of micelles into the aqueous environment.
Digitized data were analyzed, to calculate the percentage of drug release from micelles. To reduce the noise, the data were Fourier transformed, and a small magnitude narrow band noise of unknown origin and its next three harmonics were filtered out. After Fourier filtering, the data were smoothed using a 10 point moving average. An example of the raw and filtered data is presented in FIG. 19 for DOX release from 10% P-triblock micelles.
The percent of drug release was calculated assuming that Fmic-FPBS corresponds to 100% drug release:
Release (%)=[(Fmic−Fus)/(Fmic−FPBS)]×100% (1)
where Fus is fluorescence during exposure to ultrasound. […]

[2] = Rb localization in P-triblock micelles and P-gel nanoparticles (EPR and fluorescence); assay type: physicochemical
Procedure: A dry powder of the EPR probe (16-DS) was incubated with unstabilized or stabilized micellar solutions of P-triblock for 15 mm under constant shaking. Unsolubilized probe was removed by centrifugation. The concentration of a solubilized probe was measured by the EPR. The same technique of probe introduction was used for pyrene. Water solubility of 16-DS or pyrene is very low and can be neglected. Dissolved probes are associated with P-triblock molecules and thus reflect the loading capacity, dynamics and environment of the latter. For a fluorescent drug, Rb, the same concentration of Rb (20 μg/ml) was introduced into non-stabilized and stabilized micellar P-triblock solutions at 37° C. from a stock solution. Because fluorescence of Rb within P-triblock micelles is much higher than outside micelles, the fraction of the drug within micelles can be estimated as
where Fmes is a measured fluorescence intensity, Fm is Rb fluorescence intensity when all the drug is localized in the hydrophobic core of micelles (measured in a 20% P-triblock solution at 37° C.), Fs is fluorescence intensity in non-micellar solutions (i.e., in PBS), and am is the fraction of the drug located in the hydrophobic core of micelles.
Rb was used as a spin- and fluorescent probe to monitor drug distribution in P-triblock micelles and P-gel nanoparticles.
The anthraquinone part of Rb molecule is inherently fluorescent. Rb fluorescence is quenched in collisions with water molecules; when Rb molecules are screened from collisions with water, theft fluorescence increases manifold.

[3] = tested on: blood proteins (albumin, fibrinogen); conditions: reported elsewhere [82]; cited from earlier work

Compound	Drug release ([1]; 20 kHz, 0.033 W/cm^2) [%]	Drug release ([1]; 20 kHz, 0.047 W/cm^2) [%]	Drug release ([1]; 20 kHz, 0.058 W/cm^2) [%]	Drug release ([1]; 67 kHz, 0.15 W/cm^2) [%]	Drug release ([1]; 67 kHz, CW, 1.35 W/cm^2) [%]	Drug release ([1]; 67 kHz, CW, 1.66 W/cm^2) [%]	Drug release ([1]; 67 kHz, CW, 2.8 W/cm^2)	Drug release (mean and s.d.) ([1]; drug concentration 30 μg/ml, 67 kHz, 2.8 W/cm^2)	Drug release (mean and s.d.) ([1]; drug concentration 40 μg/ml, 67 kHz, 2.8 W/cm^2)	Drug Release from P-triblock Micelles ([1]; 20 kHz, 0.021 W/cm^2)	Drug Release from P-triblock Micelles ([1]; 90 kHz, 1.66 W/cm^2)	overall fraction of the drug in the cores of P-gel nanoparticle ([2]; EPR, P-gel heated to 37° C.) [%]	fraction of rotationally restricted molecules ([2]; EPR, room temperature, 10% P-triblock solution without a hydrogel) [%]	fraction of rotationally restricted molecules ([2]; EPR, room temperature, 10% P-triblock/1% poly(NiPAAm) P-gel nanoparticles) [%]	fraction of Rb molecules localized in the hydrophobic environment of micelle cores ([2]; fluorescence, room temperature, 10% P-triblock solutions)	adsorption or binding to blood proteins (albumin, fibrinogen) [3]
COc1cccc2c1C(=O)c1c(O)c3c(c(O)c1C2=O)C[C@@](O)(C(=O)CO)C[C@@H]3O[C@H]1C[C@H](N)[C@H](O)[C@H](C)O1 [DOX, doxorubicin]	4.6 ± 0.5	6.5 ± 1.1	9.2 ± 0.56	0	5.4 ± 2.3	8.1 ± 2.1	10.7 ± 0.8%	5.5%±1%	10%±1%	–	–	–	–	–	–	–
COc1cccc2c1C(=O)c1c(O)c3c(c(O)c1C2=O)C[C@@](O)(/C(C)=N/N=C1CC(C)(C)N(O)C(C)(C)C1)C[C@@H]3O[C@H]1C[C@H](N)[C@H](O)[C@H](C)O1.Cl [Rb, Ruboxyl]	–	–	–	–	0.8 ± 0.25	3.2 ± 0.9	5.5% and 5.5 ± 1.5%	–	–	Traces	traces	73	71	78	about 70%	negligible
